Measurements reported in publication PMC5142369 (Hypertension (Dallas, Tex. : 1979), 2016).
pKi: −log10 of the molar value.

Molecular target: T1, aldosterone synthase (CYP11B2) (Homo sapiens, UniProt P19099)
T1 sequence (P19099 25-503): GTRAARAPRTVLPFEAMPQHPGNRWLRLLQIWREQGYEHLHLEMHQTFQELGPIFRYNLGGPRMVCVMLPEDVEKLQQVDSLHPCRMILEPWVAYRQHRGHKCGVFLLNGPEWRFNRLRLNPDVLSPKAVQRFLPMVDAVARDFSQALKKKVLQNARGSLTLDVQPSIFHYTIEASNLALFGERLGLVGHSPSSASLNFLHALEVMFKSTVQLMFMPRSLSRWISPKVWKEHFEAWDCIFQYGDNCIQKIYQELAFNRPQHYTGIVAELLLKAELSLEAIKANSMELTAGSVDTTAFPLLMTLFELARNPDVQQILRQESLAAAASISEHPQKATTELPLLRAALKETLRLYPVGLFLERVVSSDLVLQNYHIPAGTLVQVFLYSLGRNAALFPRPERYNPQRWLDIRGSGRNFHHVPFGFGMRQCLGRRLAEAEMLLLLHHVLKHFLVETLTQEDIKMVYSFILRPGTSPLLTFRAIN
Test: aldosterone production by cells expressing the recombinant enzyme
Assay type: cell-based

CCC(=O)N[C@@H]1CCCc2c(-c3ccc4c(c3)CCC(=O)N4C)cncc21 [RO6836191]
pKi: 7.89
